Source: ChEMBL document CHEMBL3352346, “Optimization of sphingosine-1-phosphate-1 receptor agonists: effects of acidic, basic, and zwitterionic chemotypes on pharmacokinetic and pharmacodynamic profiles” (J Med Chem, 2014)

Legend:
[1] = tested on: Rattus norvegicus; test: Reduction of lymphocyte count in rat at 1 mg/kg, po measured at 8 hrs relative to control; assay type: functional; design: scale not given: the % may be the effect or the level left
[2] = molecular target: Sphingosine 1-phosphate receptor 1 (Homo sapiens, UniProt P21453); test: Agonist activity at human S1P1R expressed in RH7777 membranes assessed as [35S]GTPgammaS binding after 30 mins; assay type: functional, cell membranes
Chain of Sphingosine 1-phosphate receptor 1 (P21453 whole entry): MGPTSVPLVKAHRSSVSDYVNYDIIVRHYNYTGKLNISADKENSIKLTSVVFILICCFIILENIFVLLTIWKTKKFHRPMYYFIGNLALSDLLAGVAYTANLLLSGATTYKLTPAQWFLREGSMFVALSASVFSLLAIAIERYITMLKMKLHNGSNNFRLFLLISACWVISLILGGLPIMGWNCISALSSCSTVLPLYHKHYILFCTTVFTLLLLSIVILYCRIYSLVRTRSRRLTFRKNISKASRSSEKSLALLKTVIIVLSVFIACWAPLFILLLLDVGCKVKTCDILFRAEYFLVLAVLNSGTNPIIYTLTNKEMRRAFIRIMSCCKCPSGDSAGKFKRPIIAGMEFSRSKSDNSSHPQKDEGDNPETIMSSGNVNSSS

[3] = Half life in po dosed C57BL/6 mouse at 1 mg/kg, iv using DMSO/1% methylcellulose 1:99 (w/v); assay type: ADME, organism-based; design: dose 1 mg/kg, route oral; details: in vivo
[4] = Oral bioavailability in C57BL/6 mouse at 3 mg/kg using 1% methylcellulose (w/v); assay type: ADME, organism-based; details: in vivo
[5] = molecular target: Sphingosine 1-phosphate receptor 3 (Homo sapiens, UniProt Q99500); test: Agonist activity at human S1P3R expressed in RBL membranes assessed as [35S]GTPgammaS binding after 30 mins; assay type: functional, cell membranes
Chain of Sphingosine 1-phosphate receptor 3 (Q99500 whole entry): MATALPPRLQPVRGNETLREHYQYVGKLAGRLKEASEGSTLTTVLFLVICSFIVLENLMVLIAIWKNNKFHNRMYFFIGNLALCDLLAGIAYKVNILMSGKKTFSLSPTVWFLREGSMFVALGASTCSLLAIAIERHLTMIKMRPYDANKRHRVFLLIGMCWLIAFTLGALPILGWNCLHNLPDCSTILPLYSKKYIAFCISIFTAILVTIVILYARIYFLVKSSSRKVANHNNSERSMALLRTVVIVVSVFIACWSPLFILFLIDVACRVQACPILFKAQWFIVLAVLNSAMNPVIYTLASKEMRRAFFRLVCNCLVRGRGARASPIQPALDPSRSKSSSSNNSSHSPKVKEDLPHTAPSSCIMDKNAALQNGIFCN

[6] = tested on: Mus musculus; test: Volume of distribution at steady state in po dosed C57BL/6 mouse at 1 mg/kg, iv using DMSO/1% methylcellulose 1:99 (w/v); assay type: ADME, organism-based; design: dose 1 mg/kg, route oral; details: in vivo
[7] = tested on: Rattus norvegicus; test: Reduction of lymphocyte count in rat at 1 mg/kg, po measured at 4 hrs relative to control; assay type: functional; design: scale not given: the % may be the effect or the level left
[8] = tested on: Rattus norvegicus; test: Reduction of lymphocyte count in rat at 1 mg/kg, po measured at 24 hrs relative to control; assay type: functional; design: scale not given: the % may be the effect or the level left
[9] = Oral bioavailability in C57BL/6 mouse at 3 mg/kg using DMSO/1% methylcellulose 1:99 (w/v); assay type: ADME, organism-based; details: in vivo
[10] = Dissociation constant, pKa of the compound; assay type: physicochemical
[11] = Fraction unbound in rat blood; assay type: ADME, tissue-based
[12] = molecular target: Cytochrome P450 2C9 (Homo sapiens, UniProt P11712); test: Inhibition of CYP2C9 (unknown origin); assay type: ADME
Chain of Cytochrome P450 2C9 (P11712 whole entry): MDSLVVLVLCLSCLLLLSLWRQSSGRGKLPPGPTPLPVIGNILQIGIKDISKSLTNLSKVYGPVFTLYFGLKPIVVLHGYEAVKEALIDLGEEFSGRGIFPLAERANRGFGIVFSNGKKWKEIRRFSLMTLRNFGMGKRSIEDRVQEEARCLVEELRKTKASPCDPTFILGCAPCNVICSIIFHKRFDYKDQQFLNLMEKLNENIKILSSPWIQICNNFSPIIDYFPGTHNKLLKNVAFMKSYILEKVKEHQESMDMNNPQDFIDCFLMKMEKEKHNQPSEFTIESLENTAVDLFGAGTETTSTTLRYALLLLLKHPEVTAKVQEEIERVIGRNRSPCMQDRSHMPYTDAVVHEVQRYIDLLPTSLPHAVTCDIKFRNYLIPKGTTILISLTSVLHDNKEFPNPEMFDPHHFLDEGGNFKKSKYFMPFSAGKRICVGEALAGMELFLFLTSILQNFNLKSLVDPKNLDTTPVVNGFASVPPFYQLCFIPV

[13] = tested on: Rattus norvegicus; test: Reduction in lymphocyte level in po dosed male Lewis rat; assay type: functional, organism-based
[14] = Clearance in CD rat at 1 mg/kg, iv or 3 mg/kg, po using DMSO/10%(w/v) Kleptose, 0.9% saline(aq) (2%/98%); assay type: ADME, organism-based; details: in vivo
[15] = molecular target: T1, Cytochrome P450 1A2 (Homo sapiens, UniProt P05177); test: Inhibition of CYP1A2 (unknown origin); assay type: ADME
T1 sequence (P05177 whole entry): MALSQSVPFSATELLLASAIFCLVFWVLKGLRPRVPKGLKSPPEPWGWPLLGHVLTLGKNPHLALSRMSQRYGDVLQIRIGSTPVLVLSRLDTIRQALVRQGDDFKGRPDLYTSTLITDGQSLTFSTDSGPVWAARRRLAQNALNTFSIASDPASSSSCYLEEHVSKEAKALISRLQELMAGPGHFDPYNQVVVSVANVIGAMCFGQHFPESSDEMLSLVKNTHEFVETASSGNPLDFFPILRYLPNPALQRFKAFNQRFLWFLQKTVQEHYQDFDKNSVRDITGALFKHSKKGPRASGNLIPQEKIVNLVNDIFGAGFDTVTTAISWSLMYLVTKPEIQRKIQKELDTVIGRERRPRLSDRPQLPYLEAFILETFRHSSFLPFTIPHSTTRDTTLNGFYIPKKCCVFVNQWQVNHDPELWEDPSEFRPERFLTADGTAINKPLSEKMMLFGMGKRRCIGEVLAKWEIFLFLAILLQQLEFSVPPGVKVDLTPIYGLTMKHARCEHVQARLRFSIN

[16] = Intrinsic clearance in dog hepatocyte; assay type: ADME, cell-based, Canis lupus familiaris; details: hepatocytes
[17] = Half life in CD rat at 1 mg/kg, iv or 3 mg/kg, po using DMSO/10%(w/v) Kleptose, 0.9% saline(aq) (2%/98%); assay type: ADME, organism-based; details: in vivo
[18] = molecular target: Cytochrome P450 2C19 (Homo sapiens, UniProt P33261); test: Inhibition of CYP2C19 (unknown origin); assay type: ADME
Chain of Cytochrome P450 2C19 (P33261 whole entry): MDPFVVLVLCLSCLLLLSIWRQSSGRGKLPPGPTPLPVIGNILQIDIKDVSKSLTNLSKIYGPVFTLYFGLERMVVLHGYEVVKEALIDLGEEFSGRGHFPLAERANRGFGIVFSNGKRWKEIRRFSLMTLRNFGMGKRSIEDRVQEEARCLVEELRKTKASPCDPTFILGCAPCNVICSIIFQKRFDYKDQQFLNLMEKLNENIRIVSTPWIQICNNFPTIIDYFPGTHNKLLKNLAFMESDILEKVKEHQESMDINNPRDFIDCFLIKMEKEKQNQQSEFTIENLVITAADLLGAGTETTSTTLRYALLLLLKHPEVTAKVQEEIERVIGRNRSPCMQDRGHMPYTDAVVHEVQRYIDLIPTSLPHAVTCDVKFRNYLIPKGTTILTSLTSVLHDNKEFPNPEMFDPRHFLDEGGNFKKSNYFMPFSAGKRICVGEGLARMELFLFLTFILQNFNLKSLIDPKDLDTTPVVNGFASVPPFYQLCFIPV

[19] = (§1) Oral bioavailability in CD rat at 3 mg/kg using Methylcellulose(aq), 1% (w/v) suspension; assay type: ADME, organism-based; details: CD, in vivo
[20] = tested on: Hepatocyte; test: Intrinsic clearance in rat hepatocyte; assay type: ADME, cell-based; details: hepatocytes
[21] = tested on: Canis familiaris; test: (§2) Half life in Beagle dog at 1 mg/kg, iv or 2 mg/kg, po using DMSO/10%(w/v) Kleptose, 0.9% saline(aq) (2%/98%); assay type: ADME, organism-based, Canis lupus familiaris; details: in vivo
[22] = Inhibition of CYP3A4VR (unknown origin); assay type: ADME, Homo sapiens
[23] = Fraction unbound in dog blood; assay type: ADME, tissue-based, Canis lupus familiaris
[24] = Volume of distribution at steady state in CD rat at 1 mg/kg, iv or 3 mg/kg, po using DMSO/10%(w/v) Kleptose, 0.9% saline(aq) (2%/98%); assay type: ADME, organism-based; details: in vivo, read-out: Vdss
[25] = (§3) Volume of distribution at steady state in Beagle dog at 1 mg/kg, iv or 2 mg/kg, po using DMSO/10%(w/v) Kleptose, 0.9% saline(aq) (2%/98%); assay type: ADME, organism-based, Canis lupus familiaris; details: beagle, in vivo, read-out: Vdss
[26] = Inhibition of CYP3A4VG (unknown origin); assay type: ADME, Homo sapiens
[27] = (§4) Oral bioavailability in Beagle dog at 2 mg/kg using Methylcellulose(aq), 1% (w/v) suspension; assay type: ADME, organism-based, Canis lupus familiaris; details: beagle, in vivo
[28] = tested on: Rattus norvegicus; test: Reduction of lymphocyte count in rat at 1 mg/kg, po measured at 2 to 12 hrs relative to control; assay type: functional
[29] = molecular target: Cytochrome P450 2D6 (Homo sapiens, UniProt P10635); test: Inhibition of CYP2D6 (unknown origin); assay type: ADME
Chain of Cytochrome P450 2D6 (P10635 whole entry): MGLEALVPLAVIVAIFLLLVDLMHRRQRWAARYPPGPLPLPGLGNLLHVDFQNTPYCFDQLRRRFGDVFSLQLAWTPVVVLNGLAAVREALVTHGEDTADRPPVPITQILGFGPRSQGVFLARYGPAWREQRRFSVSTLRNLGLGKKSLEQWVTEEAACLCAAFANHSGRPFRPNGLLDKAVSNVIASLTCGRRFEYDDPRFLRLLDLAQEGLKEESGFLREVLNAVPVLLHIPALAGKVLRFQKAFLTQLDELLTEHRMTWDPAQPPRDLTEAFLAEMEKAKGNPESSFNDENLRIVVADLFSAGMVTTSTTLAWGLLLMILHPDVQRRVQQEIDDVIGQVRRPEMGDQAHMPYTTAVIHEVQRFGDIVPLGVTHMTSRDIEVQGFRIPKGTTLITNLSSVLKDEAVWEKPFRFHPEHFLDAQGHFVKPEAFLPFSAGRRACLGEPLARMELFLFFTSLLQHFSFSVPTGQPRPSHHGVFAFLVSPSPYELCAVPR

[30] = Fraction unbound in human blood; assay type: ADME, tissue-based
[31] = Clearance in Beagle dog at 1 mg/kg, iv or 2 mg/kg, po using DMSO/10%(w/v) Kleptose, 0.9% saline(aq) (2%/98%); assay type: ADME, organism-based, Canis lupus familiaris; details: in vivo
[32] = Half life in cynomolgus monkey at 1 mg/kg, iv or 3 mg/kg, po using DMSO/10%(w/v) Kleptose, 0.9% saline(aq) (2%/98%); assay type: ADME, organism-based, Macaca fascicularis; details: in vivo
[33] = Volume of distribution at steady state in cynomolgus monkey at 1 mg/kg, iv or 3 mg/kg, po using DMSO/10%(w/v) Kleptose, 0.9% saline(aq) (2%/98%); assay type: ADME, organism-based, Macaca fascicularis; details: in vivo, read-out: Vdss
[34] = Intrinsic clearance in cynomolgus monkey hepatocyte; assay type: ADME, cell-based, Macaca fascicularis; details: hepatocytes, read-out: CLH
[35] = Solubility in fed-state simulated intestinal fluid at pH 5 after 24 hrs; assay type: ADME
[36] = Solubility in fed-state simulated intestinal fluid at pH 6.5 after 24 hrs; assay type: ADME
[37] = as §2; assay type: ADME, organism-based, Canis lupus familiaris; details: beagle, in vivo
[38] = Permeability in MDCK cells; assay type: ADME, cell-based, Canis lupus familiaris; details: dog, read-out: permeability
[39] = Clearance in cynomolgus monkey at 1 mg/kg, iv or 3 mg/kg, po using DMSO/10%(w/v) Kleptose, 0.9% saline(aq) (2%/98%); assay type: ADME, organism-based, Macaca fascicularis; details: in vivo
[40] = Fraction unbound in cynomolgus monkey blood; assay type: ADME, tissue-based, Macaca fascicularis
[41] = molecular target: Albumin (Homo sapiens, UniProt P02768); test: Fraction unbound as a percentage in human serum albumin; assay type: ADME
Chain of Albumin (P02768 whole entry): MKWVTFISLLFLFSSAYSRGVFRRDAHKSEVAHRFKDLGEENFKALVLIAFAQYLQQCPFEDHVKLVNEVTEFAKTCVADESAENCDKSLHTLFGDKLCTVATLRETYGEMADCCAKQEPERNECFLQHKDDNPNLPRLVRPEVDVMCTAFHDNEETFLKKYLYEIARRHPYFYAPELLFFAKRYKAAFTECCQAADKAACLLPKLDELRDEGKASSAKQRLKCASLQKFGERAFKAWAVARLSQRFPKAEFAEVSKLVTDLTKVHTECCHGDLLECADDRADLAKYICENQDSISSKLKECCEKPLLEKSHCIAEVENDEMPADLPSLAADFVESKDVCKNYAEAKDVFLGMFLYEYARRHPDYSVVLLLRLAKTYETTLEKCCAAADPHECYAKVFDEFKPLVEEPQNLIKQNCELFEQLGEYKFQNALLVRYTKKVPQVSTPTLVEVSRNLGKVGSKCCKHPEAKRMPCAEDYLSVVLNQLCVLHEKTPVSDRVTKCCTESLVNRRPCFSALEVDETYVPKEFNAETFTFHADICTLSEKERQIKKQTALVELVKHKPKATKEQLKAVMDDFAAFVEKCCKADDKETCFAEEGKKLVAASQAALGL

[42] = Oral bioavailability in cynomolgus monkey at 3 mg/kg using Methylcellulose(aq), 1% (w/v) suspension; assay type: ADME, organism-based, Macaca fascicularis; details: in vivo
[43] = Volume of distribution at steady state in CD rat at 1 mg/kg, iv or 3 mg/kg, po using DMSO/10%(w/v) Kleptose, 0.9% saline(aq) (5%/95%); assay type: ADME, organism-based; details: in vivo, read-out: Vdss
[44] = Half life in CD rat at 1 mg/kg, iv or 3 mg/kg, po using DMSO/10%(w/v) Kleptose, 0.9% saline(aq) (5%/95%); assay type: ADME, organism-based; details: in vivo
[45] = Clearance in CD rat at 1 mg/kg, iv or 3 mg/kg, po using DMSO/10%(w/v) Kleptose, 0.9% saline(aq) (5%/95%); assay type: ADME, organism-based; details: in vivo
[46] = tested on: Rattus norvegicus; test: as §1; assay type: ADME, organism-based; details: in vivo
[47] = tested on: Canis familiaris; test: as §3; assay type: ADME, organism-based, Canis lupus familiaris; details: in vivo
[48] = tested on: Canis familiaris; test: as §4; assay type: ADME, organism-based, Canis lupus familiaris; details: in vivo

| EC50 [2] | half-life [3] | EC50 [5] | Vdss [6] | fraction unbound [11] | IC50 [12] | IC50 ([13]; Rattus norvegicus, Lewis) | clearance [14] | IC50 [15] | CLH [16] | half-life [17] | IC50 [18] | bioavailability [19] | CLH [20] | t1/2 [21] | IC50 [22] | fraction unbound [23] | Vd [24] | Vd [25] | IC50 [29] | SMILES | also measured |
| --- | --- | --- | --- | --- | --- | --- | --- | --- | --- | --- | --- | --- | --- | --- | --- | --- | --- | --- | --- | --- | --- |
| 0.0251 µM | 6.9 h | > 31.6 µM | 9.1 L/kg |  |  |  |  |  |  |  |  |  |  |  |  |  |  |  |  | CC(C)Oc1ccc(-c2nc(-c3ccc4c(c3)CCNCC4)no2)cc1C#N | Activity [1]: 82%; bioavailability [4]: 63%; Activity [7]: 75%; Activity [8]: 6% |
| 0.158 µM | 9.5 h | > 31.6 µM | 7.6 L/kg |  |  |  |  |  |  |  |  |  |  |  |  |  |  |  |  | CC(C)Oc1ccc(-c2nc(-c3ccc4c(c3)CCNCC4)no2)cc1Cl | bioavailability [9]: 59% |
| 0.0501 µM |  | 10 µM |  | 0.004 | > 50 µM | 0.099 µM | 0.71 mL/min/kg | > 50 µM | 1.7 mL/min/g | 6.6 h | > 50 µM | 78% | < 0.9 mL/min/g | 1.8 h | > 50 µM | 0.015 | 0.4 L/kg | 0.9 L/kg | > 50 µM | CC(C)Oc1ncc(-c2nc(-c3cccc4c3OCCNC4CCCC(=O)O)no2)cc1Cl (stereo in doubt; 31b) | pKa [10]: 8.09; IC50 [26]: > 50 µM; bioavailability [27]: 67%; inhibition in vivo at 1 mg/kg [28]: > 80%; fraction unbound [30]: 0.016 |
| 0.02 µM |  | > 31.6 µM |  | 0.0017 | 7 µM | 0.117 µM | 2 mL/min/kg | > 50 µM | < 1.7 mL/min/g | 7.5 h | > 50 µM | 96% | < 0.9 mL/min/g |  | 25 µM | 0.002 | 1 L/kg | 1 L/kg | > 50 µM | CC(C)Oc1ccc(-c2nc(-c3cccc4c3cnn4CCC(=O)[O-])no2)cc1Cl.[Na+] | clearance [31]: 4 mL/min/kg; half-life [32]: 1.2 h; Vd [33]: 0.4 L/kg; CLint scaled [34]: < 0.9 mL/min/kg; solubility at 24 h [35]: 44 µg/mL; solubility at 24 h [36]: 11 µg/mL; half-life [37]: 3.9 h; Papp [38]: 20.3 ×10⁻⁶ cm/s; IC50 [26]: 28 µM; bioavailability [27]: 94%; clearance [39]: 3 mL/min/kg; fraction unbound [40]: 0.0018; fraction unbound [41]: 0.012; bioavailability [42]: 59%; fraction unbound [30]: 0.001 |
| 0.0398 µM |  | 20 µM |  |  | > 50 µM |  |  | > 50 µM | 4 mL/min/g |  | > 50 µM |  |  | 0.84 h |  |  |  |  | > 50 µM | CC(C)Oc1ncc(-c2nc(-c3cccc4c3OCCNC4CCCC(=O)O)no2)cc1Cl (single isomer, unassigned; enantiomer 1) | Vd [43]: 0.6 L/kg; IC50 [13]: 0.091 µM; half-life [44]: 6.4 h; clearance [45]: 1.03 mL/min/kg; F [46]: 87%; Fu [23]: 0.01; Vdss [47]: 1.5 L/kg; F [48]: 50%; Fu [30]: 0.014 |
